ChEMBL document CHEMBL1134150, “Synthesis and antiproliferative activity of some thiazolylbenzimidazole-4,7-diones” (Bioorg Med Chem Lett, 2001)

Experiments:
K562 = test: Antiproliferative activity tested as 50% inhibition of DNA synthesis in human K562 erythroleukemia cell line; type: functional, cell-based
SW-620 = test: Antiproliferative activity tested as 50% inhibition of DNA synthesis in human SW620 colon carcinoma cell line; type: functional, cell-based

Row | SMILES | IC50 (K562) [µM] | IC50 (SW-620) [µM]
1 | COC1=CC(=O)c2[nH]c(-c3nc(C(=O)O)cs3)nc2C1=O | 15.1 | 12.1
2 | NC(=O)c1csc(-c2nc3c([nH]2)C(=O)C=CC3=O)n1 | 7.7 | 3.03
3 | COC1=CC(=O)c2[nH]c(-c3nc(C(N)=O)cs3)nc2C1=O | 1.32 | 15.9
4 | COc1cccc2c1C(=O)c1c(O)c3c(c(O)c1C2=O)C[C@@](O)(C(=O)CO)C[C@@H]3O[C@H]1C[C@H](N)[C@H](O)[C@H](C)O1 [DOXORUBICIN] | 0.62 | 0.75
5 | CCOC(=O)c1csc(-c2nc3c([nH]2)C(=O)C=CC3=O)n1 | 16.3 | 1.42
6 | O=C(O)c1csc(-c2nc3c([nH]2)C(=O)C=CC3=O)n1 | 18 | 8.76
7 | CCOC(=O)c1csc(-c2nc3c([nH]2)C(=O)C=C(OC)C3=O)n1 | 1.16 | 13.1
